Data taken from US9725490B2, “ERAP1-derived peptide and use thereof” (TOKUSHIMA UNIVERSITY, priority 2011, dated 2017).

Assays:
Assay type in all cases: cell-based, human
KPL3 cells = test: E2-independent cell proliferation, KPL-3C; conditions: 10 μM every 24 hours, at 48 hours
Description: FIG. 16 is a diagram illustrating the influence of the ERAP1-peptide on proliferation of E2-independent breast cancer cells. […] Each of the cells was treated with 10 μM ERAP1-peptide for 24 hours (MCF-7), for 48 hours (KPL-3C) or for 96 hours (ZR-75-1 and T47D).
MCF-7 cells or ZR-75-1 cells were seeded in 2×10^4/well, and KPL-3C cells were seeded in 1×10^4/well on a 48-well plate, and stood in a CO2 incubator for 24 hours. Then, for MCF-7 cells, the culture medium was exchanged with DMEM/F12 culture medium containing 10% FBS (Nichirei Biosciences, Tokyo, Japan), 1% antibiotic/antimycotic solution (Invitrogen), 0.1 mM NEAA48 (invitrogen), 1 mM sodium pyruvate and 10 μg/ml insulin (Sigma, St. Louis, Mo., USA) and not containing phenol red, and the cells were further pre-cultured for 24 hours. On the other hand, for ZR-75-1 cells and KPL-3C cells, the culture media were exchanged with RPMI culture media containing 10% FBS and 1% antibiotic/antimycotic solution and not containing phenol red, and the cells were further pre-cultured for 24 hours. The supernatant was removed, and then 200 μl of the ERAP1-peptide in each concentration or tamoxifen as a positive control was added, respectively and the mixture was reacted for 24 hours. […] Then, 100 μl from each well was moved to a 96-well plate, and the absorbance at 450 nm was measured with a microplate reader.

[1] = test system: tamoxifen-resistant MCF-7 cells; test: Proliferation of tamoxifen-resistant MCF-7 cells; conditions: 0, 5, 10 μM; in the presence of E2 and tamoxifen; 24 hours
Description: FIG. 14 is a diagram illustrating the suppression effect of the ERAP1-peptide on tamoxifen-resistant MCF-7 cells. […] The tamoxifen-resistant MCF-7 cells were treated with the ERAP1-peptide in each concentration (0, 5 and 10 μM). Then, immediately, the cells were stimulated with 10 nM E2 for 24 hours.
As the tamoxifen-resistant MCF-7 cell lines, those provided from Dr. Satoshi Inoue (Saitama Medical University Research Center for Genomic Medicine) under Material transfer agreement were offered for the experiment described below. The culture of tamoxifen-resistant MCF-7 cell was performed under the conditions recommended by the depositor. The tamoxifen-resistant MCF-7 cells were cultured in DMEM (Invitrogen, Carlsbad, Calif., USA) reinforced with 10% FBS (Nichirei Biosciences, Tokyo, Japan), 1% penicillin/streptomycin (Nacalai tesque, Kyoto, Japan), 1 μM tamoxifen (Sigma, St. Louis. Mo., USA).
Cell proliferation assay was evaluated using Cell-Counting Kit-8 (CCK-8, manufactured by Dojindo Company). First, tamoxifen-resistant MCF-7 cells were seeded in 2×10^4/well on a 48-well plate in DMEM/F12 culture medium containing phenol red and stood in a CO2 incubator for 24 hours. […] Then, 100 μl was moved to a 96-well plate from each well, and the absorbance at 450 nm was measured with a microplate reader.

[2] = test system: generation of ROS in MCF-7 cells; test: ROS production in the mitochondria, DHR123 flow cytometry
Description: FIG. 41-2 is a diagram illustrating that ROS production in the mitochondria by E2 stimulation is induced through ERAP1. […] MCF-7 cells, and MCF-7 cells suppressed for expression of ERAP1, and HCC1395 cells were treated with 10 μM DHR123 for 15 minutes. The cells were washed, and then stimulated with 10 μM ERAP1-peptide and 10 nM E2 for 24 hours, and analyzed by flow cytometry. Cells treated with 1 mM H2O2 for 24 hours were used as a positive control. The data are representative examples of two independent experiments.

SK-BR-3 cells = test: Proliferation of ERα negative SK-BR-3 cells; conditions: 24 hours and 48 hours
Description: FIG. 40 is a diagram illustrating the results of MTT assay by which proliferation suppression effect of the ERAP1-peptide in ERα negative breast cancer cell lines, SK-BR-3 cells was evaluated. SK-BR-3 cells were treated with the ERAP1-peptide (Peptide) or the ERAP1-scramble peptide (scrPeptide) for 24 hours or for 48 hours.
Cell proliferation assay was performed using Cell-Counting Kit-8 (CCK-8, Dojindo, Kumaamoto, Japan). The cells were harvested, and plated in 2×10^4 cells/well on a 48-well plate, and maintained in a humidified incubator (37° C.). 10 fold-diluted CCK-8 solution was added at indicated time points and the cells were incubated for 1 hour. Then, the absorbance at 450 nm was measured and the number of living cells was calculated.

MCF-10A cells = test: Cell proliferation assay, normal epithelial MCF-10A; conditions: 24 hours
Description: FIG. 6-1 is a diagram illustrating that ERAP1-peptide treatment suppresses ERα-dependent cell proliferation of breast cancer cell lines. (A) and (B) show the results of MTT assay by which the inhibition effect of the ERAP1-peptide in the E2-dependent cell proliferation was evaluated. MCF-7 cells were treated with the ERAP1-peptide (A, B) the ERAP1-scramble peptide (B) or the ERAP1-mutant peptide (B).
Using Cell-Counting Kit-8 (CCK-8, Dojindo, Kumamoto, Japan), the cell proliferation assay was performed. The cells were harvested, and plated in 2×10^4 cells/well on a 48-well plate, and maintained at 37° C. in a humidified incubator. At the indicated time points, the cells were added with a CCK-8 solution diluted to 1:10, and incubated for 1 hour. Then, the absorbance at 450 nm was measured and the number of living cells in each well was calculated.

CSCC[C@H](NC(=O)[C@H](CCC(N)=O)NC(=O)[C@H](CCCNC(=N)N)NC(=O)[C@H](CCCNC(=N)N)NC(=O)[C@H](CCCNC(=N)N)NC(=O)[C@H](CCCNC(=N)N)NC(=O)[C@H](CCCNC(=N)N)NC(=O)[C@H](CCCNC(=N)N)NC(=O)[C@H](CCCNC(=N)N)NC(=O)[C@H](CCCNC(=N)N)NC(=O)[C@H](CCCNC(=N)N)NC(=O)[C@H](CCCNC(=N)N)NC(=O)[C@@H](N)CCCNC(=N)N)C(=O)N[C@@H](CC(C)C)C(=O)N[C@@H](CO)C(=O)N[C@@H](CC(=O)O)C(=O)N[C@@H](CC(C)C)C(=O)N[C@H](C(=O)N[C@@H](CC(C)C)C(=O)N[C@@H](CCC(N)=O)C(=O)N[C@@H](CC(C)C)C(=O)N[C@@H](CCCNC(=N)N)C(=O)N[C@@H](CCC(N)=O)C(=O)N[C@@H](CCCNC(=N)N)C(=O)O)[C@@H](C)O [ERAP1-peptide]
cell proliferation in the absence of E2 (KPL3 cells): significant cell proliferation suppression effect | cell proliferation of Tam-R MCF-7 [1]: remarkably suppressed the cell proliferation in dose-dependent manner | generation of ROS ([2]; MCF-7 in which expression of ERAP1 was suppressed): had no influence on the generation of ROS | generation of ROS ([2]; MCF-7 transfected with control siRNA, 10 μM, E2 24 hours): generation of ROS was remarkably suppressed | cell proliferation (SK-BR-3 cells): had suppression effect on the cell proliferation in dose-dependent manner both at 24 hours and 48 hours | cell proliferation (MCF-10A cells): had no influence on the cell proliferation at all
